# Molecular target: T1, HCV NS3-4A serine protease (full-length NS3-4A protein, genotype 1a, strain HCV-1) (Hepatitis C virus genotype 1a, UniProt P26664)
# T1 construct: using the full-length NS3-4A protein (genotype 1a, strain HCV-1)
# Assay: HCV NS3-4A protease assay
# Assay type: biochemical
# Conditions: Protease IC50
# Experimental: The inhibitory activity of certain compounds of Table A against HCV NS3-4A serine protease is determined in a homogenous assay using the full-length NS3-4A protein (genotype 1a, strain HCV-1) and a commercially available internally-quenched fluorogenic peptide substrate as described by Taliani, M., et al. 1996 Anal. Biochem. 240:60-67, which is incorporated by reference in its entirety.
# T1 sequence (P26664 1658-1711): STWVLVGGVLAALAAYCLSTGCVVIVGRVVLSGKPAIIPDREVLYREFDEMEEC
# T1 sequence (P26664 1027-1657): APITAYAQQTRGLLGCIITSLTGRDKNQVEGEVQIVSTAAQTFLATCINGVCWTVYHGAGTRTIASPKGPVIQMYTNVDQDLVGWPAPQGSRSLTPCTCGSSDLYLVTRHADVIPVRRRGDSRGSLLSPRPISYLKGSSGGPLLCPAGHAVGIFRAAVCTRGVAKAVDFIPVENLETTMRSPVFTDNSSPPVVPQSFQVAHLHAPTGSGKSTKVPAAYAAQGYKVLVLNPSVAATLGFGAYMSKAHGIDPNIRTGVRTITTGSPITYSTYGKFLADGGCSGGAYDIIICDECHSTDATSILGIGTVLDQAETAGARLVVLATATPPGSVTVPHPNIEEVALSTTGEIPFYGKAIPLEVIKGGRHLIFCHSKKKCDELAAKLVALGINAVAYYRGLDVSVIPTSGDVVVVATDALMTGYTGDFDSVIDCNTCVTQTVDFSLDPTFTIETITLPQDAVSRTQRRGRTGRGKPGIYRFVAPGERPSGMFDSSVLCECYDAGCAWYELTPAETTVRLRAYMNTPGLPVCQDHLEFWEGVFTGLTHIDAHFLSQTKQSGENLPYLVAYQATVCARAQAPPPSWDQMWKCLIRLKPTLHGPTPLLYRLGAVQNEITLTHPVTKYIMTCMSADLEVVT
row,Structure (SMILES),IC50
1,"CC[C@@H]1C[C@]1(NC(=O)[C@@H]1C[C@@]2(CN1C(=O)[C@@H](NC(=O)[C@@H](NC(=O)[C@@H]1CCCCN1C(C)C)C(C)(C)C)C(C)(C)C)C(C)(C)C21CCC1)C(=O)NS(=O)(=O)C1CC1 [Compound 91, (5R,8S)-N-{(1R,2R)-1-[(cyclopropylsulfonyl)carba-moyl]-2-ethylcyclopropyl}-7-[(2S)-2-{[(2S)-2-({[(2S)-1-isopropylpiperidin-2-yl]carbonyl}amino)-3,3-dimethylbutanoyl]amino}-3,3-dimethylbutanoyl]-10,10-dimethyl-7-azadispiro[3.0.4.1]decane-8-carboxamide]",3.5 nM
2,"C=C[C@@H]1C[C@]1(NC(=O)[C@@H]1C[C@@]2(CN1C(=O)[C@@H](NC(=O)[C@@H](NC(=O)[C@@H]1CCCCN1C(C)C)C1CCCCC1)C(C)(C)C)C(C)(C)C21CCC1)C(=O)NS(=O)(=O)C1CC1 [Compound 92, (5R,8S)-7-[(2S)-2-{[(2S)-2-cyclohexyl-2-({[(2S)-1-isopropylpiperidin-2-yl]carbonyl}amino)acetyl]amino}-3,3-dimethylbutanoyl]-N-{(1R,2S)-1-[(cyclopropylsulfonyl)carba-moyl]-2-vinylcyclopropyl}-10,10-dimethyl-7-azadispiro[3.0.4.1]decane-8-carboxamide]",0.4 nM
3,"C=C[C@@H]1C[C@]1(NC(=O)[C@@H]1C[C@@]2(CN1C(=O)[C@@H](NC(=O)[C@@H](NC(=O)C1CCCCN1C(C)C)C(C)(C)C)C(C)(C)C)C(C)(C)C21CCC1)C(=O)NS(=O)(=O)C(C)(C)C (stereo partly drawn) [Compound 93, (5R,8S)-N-{(1R,2S)-1-[(tert-butylsulfonyl)carbamoyl]-2-vinylcyclopropyl}-7-[(2S)-2-{[(2S)-2-{[(1-isopropylpiperidin-2-yl)carbonyl]amino}-3,3-dimethylbutanoyl]amino}-3,3-dimethylbutanoyl]-10,10-dimethyl-7-azadispiro[3.0.4.1]decane-8-carboxamide]",8 nM
4,"C=C[C@@H]1C[C@]1(NC(=O)[C@@H]1C[C@@]2(CN1C(=O)[C@@H](NC(=O)[C@@H](NC(=O)C1CCCCN1C(C)C)C(C)(C)C)C(C)(C)C)C(C)(C)C21CCC1)C(=O)NS(C)(=O)=O (stereo partly drawn) [Compound 94, (5R,8S)-7-[(2S)-2-{[(2S)-2-{[(1-isopropylpiperidin-2-yl)carbonyl]amino}-3,3-dimethylbutanoyl]amino}-3,3-dimethylbutanoyl]-10,10-dimethyl-N-{(1R,2S)-1-[(methylsulfonyl)carbamoyl]-2-vinylcyclopropyl}-7-azadispiro[3.0.4.1]decane-8-carboxamide]",10 nM
5,"C=C[C@@H]1C[C@]1(NC(=O)[C@@H]1C[C@@]2(CN1C(=O)[C@@H](NC(=O)[C@@H](NC(=O)c1cccnc1)C1CCCCC1)C(C)(C)C)C(C)(C)C21CCC1)C(=O)NS(=O)(=O)C1CC1 [Compound 95, (5R,8S)-7-[(2S)-2-({(2S)-2-cyclohexyl-2-[(pyridin-3-ylcarbonyl)amino]acetyl}amino)-3,3-dimethylbutanoyl]-N-{(1R,2S)-1-[(cyclopropylsulfonyl)carba-moyl]-2-vinylcyclopropyl}-10,10-dimethyl-7-azadispiro[3.0.4.1]decane-8-carboxamide]",0.9 nM
6,"C=C[C@@H]1C[C@]1(NC(=O)[C@@H]1C[C@@]2(CN1C(=O)[C@@H](NC(=O)[C@@H](NC(=O)c1ccncc1)C1CCCCC1)C(C)(C)C)C(C)(C)C21CCC1)C(=O)NS(=O)(=O)C1CC1 [Compound 96, (5R,8S)-7-[(2S)-2-{[(2S)-2-cyclohexyl-2-(isonicotinoylamino)acetyl]amino}-3,3-dimethylbutanoyl]-N-{(1R,2S)-1-[(cyclopropylsulfonyl)carba-moyl]-2-vinylcyclopropyl}-10,10-dimethyl-7-azadispiro[3.0.4.1]decane-8-carboxamide]",1 nM
7,"C=C[C@@H]1C[C@]1(NC(=O)[C@@H]1C[C@@]2(CN1C(=O)[C@@H](NC(=O)[C@@H](NC(=O)c1ccccn1)C1CCCCC1)C(C)(C)C)C(C)(C)C21CCC1)C(=O)NS(=O)(=O)C1CC1 [Compound 97, (5R,8S)-7-[(2S)-2-({(2S)-2-cyclohexyl-2-[(pyridin-2-ylcarbonyl)amino]acetyl}amino)-3,3-dimethylbutanoyl]-N-{(1R,2S)-1-[(cyclopropylsulfonyl)carba-moyl]-2-vinylcyclopropyl}-10,10-dimethyl-7-azadispiro[3.0.4.1]decane-8-carboxamide]",1 nM
8,"C=C[C@@H]1C[C@]1(NC(=O)[C@@H]1C[C@@]2(CN1C(=O)[C@@H](NC(=O)[C@@H](NC(=O)c1ccccc1)C1CCCCC1)C(C)(C)C)C(C)(C)C21CCC1)C(=O)NS(=O)(=O)C1CC1 [Compound 98, (5R,8S)-7-[(2S)-2-{[(2S)-2-(benzoylamino)-2-cyclohexylacetyl]amino}-3,3-dimethylbutanoyl]-N-{(1R,2S)-1-[(cyclopropylsulfonyl)carba-moyl]-2-vinylcyclopropyl}-10,10-dimethyl-7-azadispiro[3.0.4.1]decane-8-carboxamide]",1.5 nM
9,"C=C[C@@H]1C[C@]1(NC(=O)[C@@H]1C[C@@]2(CN1C(=O)[C@@H](NC(=O)[C@@H](NC(C)=O)C1CCCCC1)C(C)(C)C)C(C)(C)C21CCC1)C(=O)NS(=O)(=O)C1CC1 [Compound 99, (5R,8S)-7-[(2S)-2-{[(2S)-2-acetamido-2-cyclohexylacetyl]amino}-3,3-dimethylbutanoyl]-N-{(1R,2S)-1-[(cyclopropylsulfonyl)carba-moyl]-2-vinylcyclopropyl}-10,10-dimethyl-7-azadispiro[3.0.4.1]decane-8-carboxamide]",6 nM
10,"C=C[C@@H]1C[C@]1(NC(=O)[C@@H]1C[C@@]2(CN1C(=O)[C@@H](NC(=O)[C@@H](NC(=O)c1cnccn1)C(C)(C)C)C(C)(C)C)C(C)(C)C21CCC1)C(=O)NS(=O)(=O)C1CC1 [Compound 100, (5R,8S)-N-{(1R,2S)-1-[(cyclopropylsulfonyl)carba-moyl]-2-vinylcyclopropyl}-7-[(2S)-2-({(2S)-3,3-dimethyl-2-[(pyrazin-2-ylcarbonyl)amino]butanoyl}amino)-3,3-dimethylbutanoyl]-10,10-dimethyl-7-azadispiro[3.0.4.1]decane-8-carboxamide]",4 nM
11,"C=C[C@H]1C[C@@]1(NC(=O)[C@@H]1C[C@@]2(CN1C(=O)[C@@H](NC(=O)[C@@H](NC(=O)C(C)(C)N1CCOCC1)C1CCCCC1)C(C)(C)C)C(C)(C)C21CCC1)C(=O)NS(=O)(=O)C1CC1 [Compound 101, (5R,8S)-7-[(2S)-2-({cyclohexyl[(2-methyl-2-morpholin-4-ylpropanoyl)amino]acetyl}amino)-3,3-dimethylbutanoyl]-N-{(1R,2S)-1-[(cyclopropylsulfonyl)carba-moyl]-2-vinylcyclopropyl}-10,10-dimethyl-7-azadispiro[3.0.4.1]decane-8-carboxamide]",1 nM
12,"C=C[C@H]1C[C@@]1(NC(=O)[C@@H]1C[C@@]2(CN1C(=O)[C@@H](NC(=O)[C@@H](NC(=O)C(C)(C)N1CCN(C(C)(C)C)CC1)C1CCCCC1)C(C)(C)C)C(C)(C)C21CCC1)C(=O)NS(=O)(=O)C1CC1 [Compound 102, (5R,8S)-7-[(2S)-2-{[{[2-(4-tert-butylpiperazin-1-yl)-2-methylpropanoyl]amino}(cyclo-hexyl)acetyl]amino}-3,3-dimethylbutanoyl]-N-{(1R,2S)-1-[(cyclopropylsulfonyl)carba-moyl]-2-vinylcyclopropyl}-10,10-dimethyl-7-azadispiro[3.0.4.1]decane-8-carboxamide]",1 nM
